Reference: US20260007758A1, “SO[…]-2 RECEPTOR (SST2R) NON-PEPTIDE DRUG CONJUGATES AND USES THEREOF” (Crinetics Pharmaceuticals, Inc., priority 2024, published 2026)
*1 amine or outer side, *2 acyl side, *3 side chain or, on linkers, in order; H or OH if unused. Where a SMILES comes first, the peptide text is derived from it. [ ]: non-standard residue; d: D form. The star is where a group is joined. X3 = Cc1cc(F)cc(-c2cnc(NCCNC(=O)CCOCCOCCOCCOCCC(=O)*)c(-c3nc4ccc(Cl)cc4[nH]3)c2N2CCC(N)CC2)c1; Dolaproine = CO[C@@H]([C@@H]1CCCN1)[C@@H](C)C(=O)O; Dil = CC[C@H](C)[C@H](NC)[C@@H](CC(=O)O)OC; PABC = O=C(OCc1ccc(N[*:1])cc1)[*:2]; X2 = C[C@@H](N*)[C@@H](O)c1ccccc1; Cit = NC(=O)NCCC[C@H](N)C(=O)O; NMeV = CN[C@H](C(=O)O)C(C)C; PEG1 = NCCOCCC(=O)O

Legend:
Type in all cases: cell-based
[1] = target: T1, human somatostatin receptor subtype 2 (Homo sapiens, UniProt P30874); experiment: Functional assay for SSTR2 agonists (HTRF cAMP); conditions: CHO-K1 cells stably expressing human SST2; NKH477-stimulated cAMP; 20 min at 37 C; read-out: hSST2 cAMP Avg EC50
T1 construct: expressed in transfected cells
T1 sequence (P30874 whole entry): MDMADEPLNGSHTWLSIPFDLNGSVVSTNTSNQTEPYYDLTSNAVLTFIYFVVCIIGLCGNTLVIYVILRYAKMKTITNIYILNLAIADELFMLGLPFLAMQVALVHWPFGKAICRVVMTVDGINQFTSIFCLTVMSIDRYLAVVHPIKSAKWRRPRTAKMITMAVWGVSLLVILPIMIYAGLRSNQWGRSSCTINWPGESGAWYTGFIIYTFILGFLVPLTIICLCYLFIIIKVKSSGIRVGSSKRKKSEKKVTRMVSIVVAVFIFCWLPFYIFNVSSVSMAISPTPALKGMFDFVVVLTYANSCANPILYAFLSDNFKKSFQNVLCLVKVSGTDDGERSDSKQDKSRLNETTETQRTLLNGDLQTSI
Procedure, shortened: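 CHO-K1 cells stably expressing human SSTR2 treated with compound (typically 0-10,000 nM final) for 20 min at 37 °C. Lysate cAMP measured by HTRF (665/620 nm ratio), converted via standard curve; EC50 from cAMP vs concentration.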

SST2 = target: T2, SST2 (Homo sapiens, UniProt P30874); experiment: PathHunter CHO-K1 SST2 Internalization Assay; conditions: PathHunter CHO-K1 SST2 cells; 90 min at 37 C; luminescence; read-out: Internalization EC50
T2 construct: host or cells: PathHunter CHO-K1 SST2 cells
T2 sequence (P30874 whole entry): as above
Procedure, shortened: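 CHO-K1 cells expressing human SST2, 2500 cells/well, grown 48 h, then exposed 90 min at 37 C to 11-point 1:3 NDC dilutions (final top 10 uM). Beta-Glo luminescence after 60 min at room temperature; four-parameter IC50, duplicate mean, background-corrected.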

[2] = system: NCI-H524 human small cell lung cancer cells; experiment: H524 assay: inhibition of cell proliferation (CellTiter Glo); conditions: 2 h treatment, washout, additional 70 h incubation
Procedure, shortened: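 NCI-H524 cells were exposed for 2 h to NDC in an 11-point two-fold series starting at 1 uM. The drug was then washed out and cells grew a further 70 h. CellTiter Glo luminescence gave % inhibition versus untreated control, and IC50 came from a four-parameter nonlinear regression.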

| SMILES | EC50 [1] | EC50 (SST2) | EC50 [2] |
| --- | --- | --- | --- |
| CC[C@H](C)[C@@H]([C@@H](CC(=O)N1CCC[C@H]1[C@H](OC)[C@@H](C)C(=O)N[C@H](C)[C@@H](O)c1ccccc1)OC)N(C)C(=O)[C@@H](NC(=O)[C@H](C(C)C)N(C)C(=O)OCc1ccc(NC(=O)[C@H](CCCNC(N)=O)NC(=O)[C@@H](NC(=O)C[C@@H](N)C(=O)NCCOCCOCCC(=O)NCCNc2ncc(-c3cc(C)cc(F)c3)c(N3CCC(N)CC3)c2-c2nc3ccc(Cl)cc3[nH]2)C(C)C)c(O[C@@H]2O[C@H](C(=O)O)[C@@H](O)[C@H](O)[C@H]2O)c1)C(C)C [Compound 137] | 0.27 nM | 2.8 nM | 850 nM |
| CC[C@H](C)[C@@H]([C@@H](CC(=O)N1CCC[C@H]1[C@H](OC)[C@@H](C)C(=O)N[C@H](C)[C@@H](O)c1ccccc1)OC)N(C)C(=O)[C@@H](NC(=O)[C@H](C(C)C)N(C)C(=O)OCc1ccc(NC(=O)[C@H](CCCNC(N)=O)NC(=O)[C@@H](NC(=O)CCOCCOCCOCCOCCC(=O)NCCNc2ncc(-c3cc(C)cc(F)c3)c(N3CCC(N)CC3)c2-c2nc3ccc(Cl)cc3[nH]2)C(C)C)c(OCC(=O)O)c1)C(C)C [Compound 19] | 0.07 nM | 8.1 nM | 28 nM |
| CC[C@H](C)[C@@H]([C@@H](CC(=O)N1CCC[C@H]1[C@H](OC)[C@@H](C)C(=O)N[C@H](C)[C@@H](O)c1ccccc1)OC)N(C)C(=O)[C@H](C)NC(=O)[C@H](C(C)C)N(C)C(=O)OCc1ccc(NC(=O)[C@H](C)NC(=O)[C@@H](NC(=O)CCOCCNC(=O)CCNc2ncc(-c3cc(C)cc(F)c3)c(N3CCC(N)CC3)c2-c2nc3ccc(Cl)cc3[nH]2)C(C)C)c(O[C@@H]2O[C@H](C(=O)O)[C@@H](O)[C@H](O)[C@H]2O)c1 [Compound 194] | 0.16 nM | 7.6 nM | 21 nM |
| CC[C@H](C)[C@@H]([C@@H](CC(=O)N1CCC[C@H]1[C@H](OC)[C@@H](C)C(=O)N[C@H](C)[C@@H](O)c1ccccc1)OC)N(C)C(=O)[C@@H](NC(=O)[C@H](C(C)C)N(C)C(=O)OCc1ccc(NC(=O)[C@H](CCCNC(N)=O)NC(=O)[C@@H](NC(=O)CCOCCOCCC(=O)NCCNc2ncc(-c3cc(C)cc(F)c3)c(N3CCC(N)CC3)c2-c2nc3ccc(Cl)cc3[nH]2)C(C)C)cc1C(=O)NCCNC(=O)CCOCCOCCOCCOCCC(=O)O)C(C)C [Compound 74] | 0.19 nM | 4.3 nM | 17 nM |
| CC[C@H](C)[C@@H]([C@@H](CC(=O)N1CCC[C@H]1[C@H](OC)[C@@H](C)C(=O)N[C@H](C)[C@@H](O)c1ccccc1)OC)N(C)C(=O)[C@@H](NC(=O)[C@H](C(C)C)N(C)C(=O)OCc1ccc(NC(=O)[C@H](CCCNC(N)=O)NC(=O)[C@@H](NC(=O)c2cc(NC(=O)CCOCCC(=O)N(C)CC(=O)NCCNc3ncc(-c4cc(C)cc(F)c4)c(N4CCC(N)CC4)c3-c3nc4ccc(Cl)cc4[nH]3)cc(C(=O)NC[C@@H](O)C(=O)O)c2)C(C)C)cc1)C(C)C [Compound 244] | 0.26 nM | 4 nM | 55 nM |
| CC[C@H](C)[C@@H]([C@@H](CC(=O)N1CCC[C@H]1[C@H](OC)[C@@H](C)C(=O)N[C@H](C)[C@@H](O)c1ccccc1)OC)N(C)C(=O)[C@@H](NC(=O)[C@H](C(C)C)N(C)C(=O)OCc1ccc(NC(=O)[C@H](CCCNC(N)=O)NC(=O)[C@@H](NC(=O)[C@H](CCC(=O)O)NC(=O)CCOCCC(=O)NCCNc2ncc(-c3cc(C)cc(F)c3)c(N3CCC(N)CC3)c2-c2nc3ccc(Cl)cc3[nH]2)C(C)C)c(C)c1)C(C)C [Compound 15] | 0.27 nM | 17 nM | 91 nM |
| CC[C@H](C)[C@@H]([C@@H](CC(=O)N1CCC[C@H]1[C@H](OC)[C@@H](C)C(=O)N[C@H](C)[C@@H](O)c1ccccc1)OC)N(C)C(=O)[C@@H](NC(=O)[C@H](C(C)C)N(C)C(=O)OCc1ccc(NC(=O)[C@H](CCCNC(N)=O)NC(=O)[C@@H](NC(=O)C[C@@H](N)C(=O)NCCOCCC(=O)NCCNc2ncc(-c3cc(C)cc(F)c3)c(N3CCC(N)CC3)c2-c2nc3ccc(Cl)cc3[nH]2)C(C)C)c(O[C@@H]2O[C@H](C(=O)O)[C@@H](O)[C@H](O)[C@H]2O)c1)C(C)C [Compound 92] | 0.2 nM | 2.5 nM | 680 nM |
| CC[C@H](C)[C@@H]([C@@H](CC(=O)N1CCC[C@H]1[C@H](OC)[C@@H](C)C(=O)N[C@H](C)[C@@H](O)c1ccccc1)OC)N(C)C(=O)[C@@H](NC(=O)[C@H](C(C)C)N(C)C(=O)OCc1ccc(NC(=O)[C@H](CCCNC(N)=O)NC(=O)[C@@H](NC(=O)C[C@@H](N)C(=O)NCCOCCNC(=O)c2cc(NCCOCCC(=O)NCCNc3ncc(-c4cc(C)cc(F)c4)c(N4CCC(N)CC4)c3-c3nc4ccc(Cl)cc4[nH]3)cc(C(=O)NCC(=O)O)c2)C(C)C)cc1)C(C)C [Compound 163] | 0.15 nM | 6.3 nM | 67 nM |
| CC[C@H](C)[C@@H]([C@@H](CC(=O)N1CCC[C@H]1[C@H](OC)[C@@H](C)C(=O)N[C@H](C)[C@@H](O)c1ccccc1)OC)N(C)C(=O)[C@@H](NC(=O)[C@H](C(C)C)N(C)C(=O)OCc1ccc(NC(=O)[C@H](C)NC(=O)[C@@H](NC(=O)CCOCCC(=O)NCCNc2ncc(-c3cc(C)cc(F)c3)c(N3CCC(N)CC3)c2-c2cc3ccc(F)cc3[nH]2)C(C)C)c(O[C@@H]2O[C@H](C(=O)O)[C@@H](O)[C@H](O)[C@H]2O)c1)C(C)C [Compound 116] | 0.19 nM | 14 nM | 21 nM |
| CC[C@H](C)[C@@H]([C@@H](CC(=O)N1CCC[C@H]1[C@H](OC)[C@@H](C)C(=O)N[C@H](C)[C@@H](O)c1ccccc1)OC)N(C)C(=O)[C@@H](NC(=O)[C@H](C(C)C)N(C)C(=O)OCc1ccc(NC(=O)[C@H](CCCNC(N)=O)NC(=O)[C@@H](NC(=O)CCOCCNC(=O)[C@H](CCC(=O)O)NC(=O)[C@H](CCC(=O)O)NC(=O)CCOCCOCCOCCOCCC(=O)NCCNc2ncc(-c3cc(C)cc(F)c3)c(N3CCC(N)CC3)c2-c2nc3ccc(Cl)cc3[nH]2)C(C)C)cc1)C(C)C [Compound 190] (X3-EE[PEG1]V[Cit][PABC][NMeV]V[Dil][Dolaproine]-X2) | 0.33 nM | 14 nM | 3200 nM |
| CC[C@H](C)[C@@H]([C@@H](CC(=O)N1CCC[C@H]1[C@H](OC)[C@@H](C)C(=O)N[C@H](C)[C@@H](O)c1ccccc1)OC)N(C)C(=O)[C@@H](NC(=O)[C@H](C(C)C)N(C)C(=O)OCc1ccc(NC(=O)[C@H](CCCNC(N)=O)NC(=O)[C@@H](NC(=O)CCOCCC(=O)N(C)CC(=O)NCCNc2ncc(-c3cc(C)cc(F)c3)c(N3CCC(N)CC3)c2-c2nc3ccc(Cl)cc3[nH]2)C(C)C)c(O)c1)C(C)C [Compound 199] | 0.071 nM | 4.1 nM | 8.9 nM |
| CC[C@H](C)[C@@H]([C@@H](CC(=O)N1CCC[C@H]1[C@H](OC)[C@@H](C)C(=O)N[C@H](C)[C@@H](O)c1ccccc1)OC)N(C)C(=O)[C@@H](NC(=O)[C@H](C(C)C)N(C)C(=O)OCc1ccc(NC(=O)[C@H](CCCNC(N)=O)NC(=O)[C@@H](NC(=O)CCOCCC(=O)NCCNc2ncc(-c3cc(C)cc(F)c3)c(N3CCC(N)CC3)c2-c2nc3ccc(Cl)cc3[nH]2)C(C)C)c(O[C@@H]2O[C@H](C(=O)N[C@@H](CCCCNC(=O)CCCCc3ccc(I)cc3)C(=O)O)[C@@H](O)[C@H](O)[C@H]2O)c1)C(C)C [Compound 54] | 0.26 nM | 2.1 nM | 20 nM |
| CC[C@H](C)[C@@H]([C@@H](CC(=O)N1CCC[C@H]1[C@H](OC)[C@@H](C)C(=O)N[C@H](C)[C@@H](O)c1ccccc1)OC)N(C)C(=O)[C@@H](NC(=O)[C@H](C(C)C)N(C)C(=O)OCc1ccc(NC(=O)[C@H](C)NC(=O)[C@@H](NC(=O)CCOCCC(=O)NCCN(C)c2ncc(-c3cc(C)cc(F)c3)c(N3CCC(N)CC3)c2-c2nc3ccc(Cl)cc3[nH]2)C(C)C)c(O[C@@H]2O[C@H](C(=O)O)[C@@H](O)[C@H](O)[C@H]2O)c1)C(C)C [Compound 125] | 0.59 nM | 48 nM | 580 nM |
| CC[C@H](C)[C@@H]([C@@H](CC(=O)N1CCC[C@H]1[C@H](OC)[C@@H](C)C(=O)N[C@H](C)[C@@H](O)c1ccccc1)OC)N(C)C(=O)[C@@H](NC(=O)[C@H](C(C)C)N(C)C(=O)OCc1ccc(NC(=O)[C@H](CCCNC(N)=O)NC(=O)[C@@H](NC(=O)C[C@@H](N)C(=O)NCCOCCC(=O)NCCNc2ncc(-c3cc(C)cc(F)c3)c(N3CCC(N)CC3)c2-c2nc3ccc(Cl)cc3[nH]2)C(C)C)c(CCC(=O)O)c1)C(C)C [Compound 205] | 0.086 nM | 5.2 nM | 37 nM |
| CC[C@H](C)[C@@H]([C@@H](CC(=O)N1CCC[C@H]1[C@H](OC)[C@@H](C)C(=O)N[C@H](C)[C@@H](O)c1ccccc1)OC)N(C)C(=O)[C@@H](NC(=O)[C@H](C(C)C)N(C)C(=O)OCc1ccc(NC(=O)C(CCCNC(N)=O)NC(=O)C2(NC(=O)CCOCCC(=O)NCCNc3ncc(-c4cc(C)cc(F)c4)c(N4CCC(N)CC4)c3-c3nc4ccc(Cl)cc4[nH]3)CCC2)c(O[C@@H]2O[C@H](C(=O)O)[C@@H](O)[C@H](O)[C@H]2O)c1)C(C)C (stereo partly drawn) [Compound 242] | 0.045 nM | 2.5 nM | 70 nM |
| CC[C@H](C)[C@@H]([C@@H](CC(=O)N1CCC[C@H]1[C@H](OC)[C@@H](C)C(=O)N[C@H](C)[C@@H](O)c1ccccc1)OC)N(C)C(=O)[C@@H](NC(=O)[C@H](C(C)C)N(C)C(=O)OCc1ccc(NC(=O)[C@H](CCCNC(N)=O)NC(=O)[C@@H](NC(=O)c2cc(NCCOCCC(=O)NCCNc3ncc(-c4cc(C)cc(F)c4)c(N4CCC(N)CC4)c3-c3nc4cc(F)cc(OC)c4[nH]3)cc(C(=O)NCC(=O)O)c2)C(C)C)cc1)C(C)C [Compound 166] | 0.29 nM | 4.5 nM | 18 nM |
